We go through two molecules from ChEMBL document CHEMBL1144507, “Synthesis and antifungal activity of (Z)-5-arylidenerhodanines” (2007).

As usually defined, the MIC is the smallest concentration in the dilution series that meets the test's criterion for growth inhibition.

For one experiment, the system named is Nannizzia gypsea. As to the kind of experiment: Antifungal activity against Microsporum gypseum C115 after 48 hrs. Type of experiment: functional.
Experiment [1] concerns Trichophyton rubrum. As to the kind of experiment: Antifungal activity against Trichophyton rubrum C113 after 48 hrs. It is filed as functional.
In experiment [2] the test system is Trichophyton benhamiae. Nature of the experiment: Antifungal activity against Trichophyton mentagrophytes ATCC 9972 after 48 hrs. Type of experiment: functional, Arthroderma benhamiae. Particulars: ATCC 9972, 48 h.
For the next experiment, the system named is Candida albicans. Nature of the experiment: Antifungal activity against Candida albicans ATCC 10231 after 48 hrs. Type of experiment: functional. Particulars: ATCC 10231, 48 h.
Another experiment deals with Saccharomyces cerevisiae. Nature of the experiment: Antifungal activity against Saccharomyces cerevisiae ATCC 9763 after 48 hrs. Type of experiment: functional. Particulars: ATCC 9763, 48 h.
Another experiment relates to Cryptococcus neoformans. As to the kind of experiment: Antifungal activity against Cryptococcus neoformans ATCC 32264 after 48 hrs. Particulars: ATCC 32264, 48 h. It is filed as functional.
A further experiment concerns Aspergillus niger. As to the kind of experiment: Antifungal activity against Aspergillus niger ATCC 9029 after 48 hrs. Particulars: ATCC 9029, 48 h. It is filed as functional.
The subject of a further experiment is Aspergillus fumigatus. As to the kind of experiment: Antifungal activity against Aspergillus fumigatus ATCC 26934 after 48 hrs. Type of experiment: functional. Particulars: ATCC 26934, 48 h.
For a further experiment, the system named is Aspergillus flavus. Nature of the experiment: Antifungal activity against Aspergillus flavus ATCC 9170 after 48 hrs. It is filed as functional. Conditions: ATCC 9170, 48 h.
Experiment [3] relates to Trichophyton rubrum. Nature of the experiment: Antifungal activity against Trichophyton rubrum C110 after 48 hrs. It is filed as functional.
Experiment [4] concerns Trichophyton rubrum. As to the kind of experiment: Antifungal activity against Trichophyton rubrum C135 after 48 hrs. It is filed as functional.
Experiment [5] relates to Trichophyton rubrum. Nature of the experiment: Antifungal activity against Trichophyton rubrum C136 after 48 hrs. It is filed as functional.
In experiment [6] the test system is Trichophyton rubrum. As to the kind of experiment: Antifungal activity against Trichophyton rubrum C137 after 48 hrs. Type of experiment: functional.
Experiment [7] deals with Trichophyton rubrum. Nature of the experiment: Antifungal activity against Trichophyton rubrum C139 after 48 hrs. Type of experiment: functional.
The subject of experiment [8] is Trichophyton rubrum. As to the kind of experiment: Antifungal activity against Trichophyton rubrum C140 after 48 hrs. It is filed as functional.
In experiment [9] the test system is Trichophyton benhamiae. Nature of the experiment: Antifungal activity against Trichophyton mentagrophytes C108 after 48 hrs. It is filed as functional, Arthroderma benhamiae.
In experiment [10] the test system is Trichophyton benhamiae. As to the kind of experiment: Antifungal activity against Trichophyton mentagrophytes C364 after 48 hrs. It is filed as functional, Arthroderma benhamiae.
Experiment [11] relates to Trichophyton benhamiae. As to the kind of experiment: Antifungal activity against Trichophyton mentagrophytes C539 after 48 hrs. It is filed as functional, Arthroderma benhamiae.
Experiment [12] concerns Trichophyton benhamiae. As to the kind of experiment: Antifungal activity against Trichophyton mentagrophytes C738 after 48 hrs. It is filed as functional, Arthroderma benhamiae.
For experiment [13], the system named is Trichophyton benhamiae. Nature of the experiment: Antifungal activity against Trichophyton mentagrophytes C943 after 48 hrs. It is filed as functional, Arthroderma benhamiae.

The structures appear in SMILES notation. In brackets after ≈: the same amount, converted by molar mass.

In the case of `O=C1NC(=S)S/C1=C\c1ccccc1C(F)(F)F`, the MIC in the experiment on Nannizzia gypsea was found to be 3.9 µg/mL (≈ 13.5 µM); in the experiment on Trichophyton rubrum [1], 3.9 µg/mL (≈ 13.5 µM); against Trichophyton benhamiae [2], 3.9 µg/mL (≈ 13.5 µM); against Candida albicans it was 250 µg/mL (≈ 864 µM); in the experiment on Saccharomyces cerevisiae, 250 µg/mL (≈ 864 µM); in the experiment on Cryptococcus neoformans it was 15.6 µg/mL (≈ 53.9 µM). In addition, the MIC against Aspergillus niger is over 250 µg/mL; with Aspergillus fumigatus, over 250 µg/mL; against Aspergillus flavus, over 250 µg/mL; against Trichophyton rubrum [3] it was 3.9 µg/mL (≈ 13.5 µM); in the experiment on Trichophyton rubrum [4] it was 3.9 µg/mL (≈ 13.5 µM); against Trichophyton rubrum [5], 3.9 µg/mL (≈ 13.5 µM). The MIC with Trichophyton rubrum [6] was 1.95 µg/mL (≈ 6.74 µM); in the experiment with Trichophyton rubrum [7], 3.9 µg/mL (≈ 13.5 µM); with Trichophyton rubrum [8], 3.57 µg/mL (≈ 12.3 µM); with Trichophyton benhamiae [9], 1.95 µg/mL (≈ 6.74 µM); against Trichophyton benhamiae [10], 0.97 µg/mL (≈ 3.35 µM); in the experiment on Trichophyton benhamiae [11], 1.95 µg/mL (≈ 6.74 µM). The minimal inhibitory concentration (MIC) against Trichophyton benhamiae [12] amounted to 1.95 µg/mL (≈ 6.74 µM); against Trichophyton benhamiae [13], 0.97 µg/mL (≈ 3.35 µM).
Take `CN(C/C=C/C#CC(C)(C)C)Cc1cccc2ccccc12` [TERBINAFINE]: the MIC with Trichophyton rubrum [3] was found to be 0.006 µg/mL (≈ 0.0206 µM); against Trichophyton rubrum [4], 0.006 µg/mL (≈ 0.0206 µM); against Trichophyton rubrum [5] it was 0.006 µg/mL (≈ 0.0206 µM); with Trichophyton rubrum [6], 0.006 µg/mL (≈ 0.0206 µM); against Trichophyton rubrum [7] it was 0.012 µg/mL (≈ 0.0412 µM); against Trichophyton rubrum [8], 0.003 µg/mL (≈ 0.0103 µM). The minimum inhibitory concentration (MIC) with Trichophyton benhamiae [9], against Trichophyton benhamiae [10], in the experiment with Trichophyton benhamiae [11], against Trichophyton benhamiae [12] and in the experiment on Trichophyton benhamiae [13] was 0.006 µg/mL (≈ 0.0206 µM) in each case.
